Converted amounts (≈) assume the structure as drawn.
Assays:
Assay in all cases: MIC, broth microdilution (NCCLS)
Format in all cases: cell-based
[1] = system: S. pneumoniae* GC1894 (Clinical); conditions: Streptococcus pneumoniae, Mueller-Hinton II broth, 18-22 hours at 35° C.
Method: (§1) Methods for in Vitro Antibacterial Evaluation
(§2) The Minimum Inhibitory Concentration (MIC)
(§3) Antimicrobial susceptibility testing. The in vitro activities of the antibiotics are determined by the broth microdilution method as recommended by the National Committee for Clinical Laboratory Standards (NCCLS) (1). Mueller-Hinton II broth (MHBII)(BBL Cockeysville, Md.) is the medium employed in the testing procedures. Microtiter plates containing serial dilutions of each antimicrobial agent are inoculated with each organism to yield the appropriate density (10^5 CFU/ml) in a 100 μl final volume. The plates are incubated for 18-22 hours at 35° C. in ambient air.
(§4) 1. NCCLS. 2000. Methods for Dilution Antimicrobial Susceptibility Tests for Bacteria That Grow Aerobically; Approved Standards: M7-A5, vol. 20. National Committe for Clinical Laboratory Standards, Wayne, Pa.

[2] = system: E. faecalis GC2242 (Van-resistant); conditions: Enterococcus faecalis, Mueller-Hinton II broth, 18-22 hours at 35° C.
Method: as §1, §2, §3, §4

[3] = system: E. coli GC4559 (parent GC4560); conditions: Escherichia coli, Mueller-Hinton II broth, 18-22 hours at 35° C.
Method: as §1, §2, §3, §4

[4] = system: S. pneumoniae* GC4465 (Clinical); conditions: Streptococcus pneumoniae, Mueller-Hinton II broth, 18-22 hours at 35° C.
Method: as §1, §2, §3, §4

[5] = system: E. coli GC4560 (IMP mutant); conditions: Escherichia coli
Method: as §1, §2, §3, §4

[6] = system: S. aureus GC6466 (tet(M)); conditions: Staphylococcus aureus, Mueller-Hinton II broth, 18-22 hours at 35° C.
Method: as §1, §2, §3, §4

[7] = system: E. coli GC2270 (tet(M)); conditions: Escherichia coli
Method: as §1, §2, §3, §4

[8] = system: E. coli GC1073 (tet(B)); conditions: Escherichia coli
Method: as §1, §2, §3, §4

[9] = system: S. aureus GC4536 (Smith MP -In Vivo); conditions: Staphylococcus aureus, Mueller-Hinton II broth, 18-22 hours at 35° C.
Method: as §1, §2, §3, §4

[10] = system: C. albicans GC3066 ATCC (Control); conditions: Candida albicans, Mueller-Hinton II broth, 18-22 hours at 35° C.
Method: as §1, §2, §3, §4

[11] = system: S. pyogenes* GC4563 (Clinical); conditions: Streptococcus pyogenes, Mueller-Hinton II broth, 18-22 hours at 35° C.
Method: as §1, §2, §3, §4

[12] = system: E. faecalis GC4555 (ATCC Control); conditions: Enterococcus faecalis, Mueller-Hinton II broth, 18-22 hours at 35° C.
Method: as §1, §2, §3, §4

[13] = system: S. aureus GC1131 (Clinical); conditions: Staphylococcus aureus, Mueller-Hinton II broth, 18-22 hours at 35° C.
Method: as §1, §2, §3, §4

[14] = system: S. aureus GC1079 (tet(K)); conditions: Staphylococcus aureus, Mueller-Hinton II broth, 18-22 hours at 35° C.
Method: as §1, §2, §3, §4

[15] = system: E. coli GC2203 (ATCC Control); conditions: Escherichia coli, Mueller-Hinton II broth, 18-22 hours at 35° C.
Method: as §1, §2, §3, §4

[16] = system: H. influenzae<> GC6896 (ATCC Control); conditions: Haemophilus influenzae, Mueller-Hinton II broth, 18-22 hours at 35° C.
Method: as §1, §2, §3, §4

[17] = system: S. aureus GC2216 (ATCC Control); conditions: Staphylococcus aureus, Mueller-Hinton II broth, 18-22 hours at 35° C.
Method: as §1, §2, §3, §4

[18] = system: M. catarrhalis* GC6907 (Clinical); conditions: Moraxella catarrhalis, Mueller-Hinton II broth, 18-22 hours at 35° C.
Method: as §1, §2, §3, §4

| Compound | MIC [1] [µg/mL] | MIC [2] [µg/mL] | MIC [3] [µg/mL] | MIC [4] [µg/mL] | MIC [5] [µg/mL] | MIC [6] [µg/mL] | MIC [7] [µg/mL] | MIC [8] [µg/mL] | MIC [9] [µg/mL] | MIC [10] [µg/mL] | MIC [11] [µg/mL] | MIC [12] [µg/mL] | MIC [13] [µg/mL] | MIC [14] [µg/mL] | MIC [15] [µg/mL] | MIC [16] [µg/mL] | MIC [17] [µg/mL] | MIC [18] [µg/mL] |
| --- | --- | --- | --- | --- | --- | --- | --- | --- | --- | --- | --- | --- | --- | --- | --- | --- | --- | --- |
| CN(C)c1cc2nc(-c3ccc(C#N)cc3)oc2c2c1C[C@H]1C[C@H]3[C@H](N(C)C)C(O)=C(C(N)=O)C(=O)[C@@]3(O)C(O)=C1C2=O [Example 7, (6aR,7aS,8S,11aS)-2-(4-cyanophenyl)-5,8-bis(dimethylamino)-9,11a,12-trihydroxy-11,13-dioxo-6,6a,7,7a,8,11,11a,13-octahydrotetraceno[2,1-d][1,3]oxazole-10-carboxamide] | 16 (≈ 27.4 µM) | 8 (≈ 13.7 µM) | > 64 | 8 (≈ 13.7 µM) | 8 (≈ 13.7 µM) | 8 (≈ 13.7 µM) | > 64 | > 64 | 8 (≈ 13.7 µM) | > 64 | 8 (≈ 13.7 µM) | 8 (≈ 13.7 µM) | 8 (≈ 13.7 µM) | 8 (≈ 13.7 µM) | > 64 | 64 (≈ 110 µM) | 8 (≈ 13.7 µM) | 4 (≈ 6.85 µM) |
| CN(C)c1cc2nc(/C=C/c3ccco3)oc2c2c1C[C@H]1C[C@H]3[C@H](N(C)C)C(O)=C(C(N)=O)C(=O)[C@@]3(O)C(O)=C1C2=O [Example 22, (6aR,7aS,8S,11aS)-5,8-bis(dimethylamino)-2-[(E)-2-(2-furyl)ethenyl]-9,11a,12-trihydroxy-11,13-dioxo-6,6a,7,7a,8,11,11a,13-octahydrotetraceno[2,1-d][1,3]oxazole-10-carboxamide] | 32 (≈ 55.7 µM) | 8 (≈ 13.9 µM) | > 64 | 32 (≈ 55.7 µM) | 8 (≈ 13.9 µM) | 8 (≈ 13.9 µM) | > 64 | > 64 | 8 (≈ 13.9 µM) | > 64 | 16 (≈ 27.8 µM) | 8 (≈ 13.9 µM) | 8 (≈ 13.9 µM) | 8 (≈ 13.9 µM) | > 64 | > 64 | 8 (≈ 13.9 µM) | 16 (≈ 27.8 µM) |
| COc1cc(OC)c(-c2nc3cc(N(C)C)c4c(c3o2)C(=O)C2=C(O)[C@]3(O)C(=O)C(C(N)=O)=C(O)[C@@H](N(C)C)[C@@H]3C[C@@H]2C4)c(OC)c1 [Example 15, (6aR,7aS,8S,11aS)-5,8-bis(dimethylamino)-9,11a,12-trihydroxy-11,13-dioxo-2-(2,4,6-trimethoxyphenyl)-6,6a,7,7a,8,11,11a,13-octahydrotetraceno[2,1-d][1,3]oxazole-10-carboxamide] | > 64 | 64 (≈ 98.7 µM) | > 64 | > 64 | 32 (≈ 49.3 µM) | 64 (≈ 98.7 µM) | > 64 | > 64 | 64 (≈ 98.7 µM) | > 64 | > 64 | 64 (≈ 98.7 µM) | 64 (≈ 98.7 µM) | 64 (≈ 98.7 µM) | > 64 | > 64 | 64 (≈ 98.7 µM) | 64 (≈ 98.7 µM) |
| CN(C)c1cc2nc(-c3ccc(C(C)(C)C)cc3)oc2c2c1C[C@H]1C[C@H]3[C@H](N(C)C)C(O)=C(C(N)=O)C(=O)[C@@]3(O)C(O)=C1C2=O [Example 31, (6aR,7aS,8S,11aS)-2-(4-tert-butylphenyl)-5,8-bis(dimethylamino)-9,11a,12-trihydroxy-11,13-dioxo-6,6a,7,7a,8,11,11a,13-octahydrotetraceno[2,1-d][1,3]oxazole-10-carboxamide] | 8 (≈ 13 µM) | 8 (≈ 13 µM) | > 64 | 8 (≈ 13 µM) | 4 (≈ 6.51 µM) | 4 (≈ 6.51 µM) | > 64 | > 64 | 8 (≈ 13 µM) | > 64 | 8 (≈ 13 µM) | 8 (≈ 13 µM) | 8 (≈ 13 µM) | 8 (≈ 13 µM) | > 64 | > 64 | 8 (≈ 13 µM) | 16 (≈ 26 µM) |
| CN(C)c1cc2nc(-c3ccncc3)oc2c2c1C[C@H]1C[C@H]3[C@H](N(C)C)C(O)=C(C(N)=O)C(=O)[C@@]3(O)C(O)=C1C2=O [Example 33, (6aR,7aS,8S,11aS)-5,8-bis(dimethylamino)-9,11a,12-trihydroxy-11,13-dioxo-2-pyridin-4-yl-6,6a,7,7a,8,11,11a,13-octahydrotetraceno[2,1-d][1,3]oxazole-10-carboxamide] | 32 (≈ 57.2 µM) | 16 (≈ 28.6 µM) | > 64 | 16 (≈ 28.6 µM) | 16 (≈ 28.6 µM) | 32 (≈ 57.2 µM) | > 64 | > 64 | 16 (≈ 28.6 µM) | > 64 | 8 (≈ 14.3 µM) | 16 (≈ 28.6 µM) | 16 (≈ 28.6 µM) | 16 (≈ 28.6 µM) | 64 (≈ 114 µM) | 32 (≈ 57.2 µM) | 16 (≈ 28.6 µM) | 8 (≈ 14.3 µM) |
| CN(C)c1cc2nc(C(C)(C)C)oc2c2c1C[C@H]1C[C@H]3[C@H](N(C)C)C(O)=C(C(N)=O)C(=O)[C@@]3(O)C(O)=C1C2=O [Example 4, (6aR,7aS,8S,11aS)-2-tert-butyl-5,8-bis(dimethylamino)-9,11a,12-trihydroxy-11,13-dioxo-6,6a,7,7a,8,11,11a,13-octahydrotetraceno[2,1-d][1,3]oxazole-10-carboxamide] | 32 (≈ 59.4 µM) | 32 (≈ 59.4 µM) | > 64 | 16 (≈ 29.7 µM) | 16 (≈ 29.7 µM) | 32 (≈ 59.4 µM) | > 64 | > 64 | 32 (≈ 59.4 µM) | > 64 | 16 (≈ 29.7 µM) | 32 (≈ 59.4 µM) | 16 (≈ 29.7 µM) | 16 (≈ 29.7 µM) | > 64 | > 64 | 32 (≈ 59.4 µM) | 16 (≈ 29.7 µM) |
| CN(C)c1cc2nc(-c3cc(C(C)(C)C)ccc3O)oc2c2c1C[C@H]1C[C@H]3[C@H](N(C)C)C(O)=C(C(N)=O)C(=O)[C@@]3(O)C(O)=C1C2=O [Example 10, (6aR,7aS,8S,11aS)-2-(5-tert-butyl-2-hydroxyphenyl)-5,8-bis(dimethylamino)-9,11a,12-trihydroxy-11,13-dioxo-6,6a,7,7a,8,11,11a,13-octahydrotetraceno[2,1-d][1,3]oxazole-10-carboxamide] | 8 (≈ 12.7 µM) | 8 (≈ 12.7 µM) | > 64 | 16 (≈ 25.4 µM) | 32 (≈ 50.7 µM) | 16 (≈ 25.4 µM) | > 64 | > 64 | 16 (≈ 25.4 µM) | > 64 | 16 (≈ 25.4 µM) | 16 (≈ 25.4 µM) | 8 (≈ 12.7 µM) | 16 (≈ 25.4 µM) | > 64 | > 64 | 16 (≈ 25.4 µM) | > 64 |
| COc1cccc(/C=C/c2nc3cc(N(C)C)c4c(c3o2)C(=O)C2=C(O)[C@]3(O)C(=O)C(C(N)=O)=C(O)[C@@H](N(C)C)[C@@H]3C[C@@H]2C4)c1 [Example 27, (6aR,7aS,8S,11aS)-5,8-bis(dimethylamino)-9,11a,12-trihydroxy-2-[(E)-2-(3-methoxyphenyl)ethenyl]-11,13-dioxo-6,6a,7,7a,8,11,11a,13-octahydrotetraceno[2,1-d][1,3]oxazole-10-carboxamide] | 64 (≈ 104 µM) | 8 (≈ 13 µM) | > 64 | 64 (≈ 104 µM) | 32 (≈ 52.1 µM) | 16 (≈ 26 µM) | > 64 | > 64 | 16 (≈ 26 µM) | > 64 | 64 (≈ 104 µM) | 16 (≈ 26 µM) | 8 (≈ 13 µM) | 8 (≈ 13 µM) | > 64 | > 64 | 8 (≈ 13 µM) | > 64 |

— US20080064667A1, “OXAZOLE DERIVATIVES OF TETRACYCLINES” (Wyeth, priority 2003, published 2008)
